Key:
[1] = target: T1, Dihydroorotate dehydrogenase (quinone), mitochondrial [30-395] (Rattus norvegicus, UniProt Q63707); experiment: Enzyme Inhibition Assay; conditions: pH 8; 30 °C
T1 construct: 30-395

[2] = target: Dihydroorotate dehydrogenase (quinone), mitochondrial (Rattus norvegicus, UniProt Q63707); experiment: Enzyme Inhibition Assay; conditions: pH 8; 30 °C
Dihydroorotate dehydrogenase (quinone), mitochondrial, sequence (Q63707 whole entry): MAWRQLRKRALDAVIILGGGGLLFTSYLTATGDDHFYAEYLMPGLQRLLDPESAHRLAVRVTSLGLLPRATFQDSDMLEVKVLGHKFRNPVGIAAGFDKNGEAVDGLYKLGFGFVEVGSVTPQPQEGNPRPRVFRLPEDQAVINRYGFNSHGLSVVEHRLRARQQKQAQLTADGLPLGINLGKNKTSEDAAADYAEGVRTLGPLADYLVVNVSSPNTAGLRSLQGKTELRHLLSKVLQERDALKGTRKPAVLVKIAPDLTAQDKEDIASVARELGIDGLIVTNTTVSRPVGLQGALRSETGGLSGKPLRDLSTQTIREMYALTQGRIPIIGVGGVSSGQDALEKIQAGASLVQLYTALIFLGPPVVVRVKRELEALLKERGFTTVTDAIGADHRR

T1 sequence (Q63707 30-395): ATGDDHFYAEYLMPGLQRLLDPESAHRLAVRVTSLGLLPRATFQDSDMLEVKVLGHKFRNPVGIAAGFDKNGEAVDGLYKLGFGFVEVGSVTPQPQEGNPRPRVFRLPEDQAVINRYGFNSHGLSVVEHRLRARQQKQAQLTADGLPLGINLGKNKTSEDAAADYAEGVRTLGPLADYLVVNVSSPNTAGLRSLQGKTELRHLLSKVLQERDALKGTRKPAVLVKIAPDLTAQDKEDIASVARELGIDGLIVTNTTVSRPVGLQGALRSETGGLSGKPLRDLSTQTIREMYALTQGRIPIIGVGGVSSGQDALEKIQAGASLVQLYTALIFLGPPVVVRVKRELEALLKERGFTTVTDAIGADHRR

SMILES: O=C1C(=O)C(C2CCC(c3ccc(Cl)cc3)CC2)C(=O)c2ccccc21 (configuration not stated) [Mepron]
- IC50 [1]: 904 nM
- IC50 [2]: 698 nM
